Consider 19 compounds from ChEMBL document CHEMBL1132608, “Structure-activity relationship of diaryl phosphonate esters as potent irreversible dipeptidyl peptidase IV inhibitors” (J Med Chem, 1999).

Series [1] can be described thus: Functional stability in plasma was estimated by fitting the inverse of apparent IC50 values verses time with a single-exponential decay. Type of series: ADME, cell-free.
The next series concerns the target Dipeptidyl peptidase 4 (Homo sapiens, UniProt P27487).
Series [2] deals with T1, Prolyl endopeptidase (Homo sapiens) (UniProt P48147).
T1 sequence (whole entry): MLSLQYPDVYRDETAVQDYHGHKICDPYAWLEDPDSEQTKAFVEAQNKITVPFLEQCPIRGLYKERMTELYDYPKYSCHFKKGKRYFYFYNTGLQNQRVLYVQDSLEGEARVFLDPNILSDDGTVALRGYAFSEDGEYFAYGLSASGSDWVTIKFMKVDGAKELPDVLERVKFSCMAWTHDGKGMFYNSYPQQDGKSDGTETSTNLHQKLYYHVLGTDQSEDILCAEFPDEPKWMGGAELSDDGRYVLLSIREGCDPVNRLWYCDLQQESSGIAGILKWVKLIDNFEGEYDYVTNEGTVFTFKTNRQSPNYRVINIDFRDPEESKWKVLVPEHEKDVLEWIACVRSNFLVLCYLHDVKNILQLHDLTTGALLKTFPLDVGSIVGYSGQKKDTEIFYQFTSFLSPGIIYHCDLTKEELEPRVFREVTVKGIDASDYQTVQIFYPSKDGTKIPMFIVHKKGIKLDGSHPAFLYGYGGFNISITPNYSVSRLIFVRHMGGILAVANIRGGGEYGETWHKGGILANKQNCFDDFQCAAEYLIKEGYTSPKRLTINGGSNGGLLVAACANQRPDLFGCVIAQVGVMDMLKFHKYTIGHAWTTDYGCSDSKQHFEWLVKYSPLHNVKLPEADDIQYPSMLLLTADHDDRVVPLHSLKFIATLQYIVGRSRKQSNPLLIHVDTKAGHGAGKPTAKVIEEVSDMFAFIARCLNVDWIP
Description: Effect on the activity of prolyl endopeptidase (PEP) is evaluated at 1 mM.

The target in series [3] is T1, Prolyl endopeptidase (Homo sapiens). Description: Effect on the activity of prolyl endopeptidase (PEP) is evaluated at the IC50 concentration for DPPIV.
Series [4] is described as follows: Effect on the activity of membrane alanyl aminopeptidase (MAAP) is evaluated at the IC50 concentration for DPPIV.
For series [5], the species on record is Homo sapiens. Description: Effect on the activity of elastase is evaluated at a concentration of 1 mM. The series is classed as functional.
Series [6] concerns the target Dipeptidyl peptidase 4 (Mus musculus) (UniProt P28843).
Description: Effect on the activity of Dipeptidylpeptidase II (DPP II) is evaluated at a concentration of 1 mM.
The target in series [7] is Aminopeptidase N (Homo sapiens) (UniProt P15144). Description: Effect on the activity of membrane alanyl aminopeptidase (MAAP) is evaluated at a concentration of 1 mM.
In series [8] the target is Dipeptidyl peptidase 4 (Mus musculus) (UniProt P28843). This is another data set of the same source.
Description: Effect on the activity of Dipeptidylpeptidase II (DPP II) is evaluated at the IC50 concentration for DPPIV.
The species named for series [9] is Homo sapiens. Description: Effect on the activity of elastase was determined as IC50. The series is classed as functional.
Series [10] is filed under the species Homo sapiens. Description: cells.

Dipeptidyl peptidase 4, sequence (P27487 whole entry): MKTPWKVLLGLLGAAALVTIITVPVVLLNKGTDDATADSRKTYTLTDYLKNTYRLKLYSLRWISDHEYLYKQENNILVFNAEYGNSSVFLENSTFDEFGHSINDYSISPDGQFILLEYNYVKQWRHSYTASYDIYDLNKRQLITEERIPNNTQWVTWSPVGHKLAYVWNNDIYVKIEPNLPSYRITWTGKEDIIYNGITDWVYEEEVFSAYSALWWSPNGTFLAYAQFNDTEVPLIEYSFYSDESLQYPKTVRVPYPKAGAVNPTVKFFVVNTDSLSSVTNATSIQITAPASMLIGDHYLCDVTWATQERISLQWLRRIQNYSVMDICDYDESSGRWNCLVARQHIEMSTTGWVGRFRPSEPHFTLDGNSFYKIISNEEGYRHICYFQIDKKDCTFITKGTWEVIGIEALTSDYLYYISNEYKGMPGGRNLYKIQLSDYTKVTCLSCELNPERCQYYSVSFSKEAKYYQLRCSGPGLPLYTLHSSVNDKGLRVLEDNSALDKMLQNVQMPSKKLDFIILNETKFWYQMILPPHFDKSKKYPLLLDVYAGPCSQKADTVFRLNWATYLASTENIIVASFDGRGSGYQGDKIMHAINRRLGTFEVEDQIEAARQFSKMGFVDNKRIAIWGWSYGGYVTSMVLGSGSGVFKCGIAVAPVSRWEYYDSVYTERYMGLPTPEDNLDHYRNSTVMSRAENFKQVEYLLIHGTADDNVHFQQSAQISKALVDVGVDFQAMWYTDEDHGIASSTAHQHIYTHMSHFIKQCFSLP
Dipeptidyl peptidase 4 (Mus musculus), sequence (P28843 whole entry, looked up): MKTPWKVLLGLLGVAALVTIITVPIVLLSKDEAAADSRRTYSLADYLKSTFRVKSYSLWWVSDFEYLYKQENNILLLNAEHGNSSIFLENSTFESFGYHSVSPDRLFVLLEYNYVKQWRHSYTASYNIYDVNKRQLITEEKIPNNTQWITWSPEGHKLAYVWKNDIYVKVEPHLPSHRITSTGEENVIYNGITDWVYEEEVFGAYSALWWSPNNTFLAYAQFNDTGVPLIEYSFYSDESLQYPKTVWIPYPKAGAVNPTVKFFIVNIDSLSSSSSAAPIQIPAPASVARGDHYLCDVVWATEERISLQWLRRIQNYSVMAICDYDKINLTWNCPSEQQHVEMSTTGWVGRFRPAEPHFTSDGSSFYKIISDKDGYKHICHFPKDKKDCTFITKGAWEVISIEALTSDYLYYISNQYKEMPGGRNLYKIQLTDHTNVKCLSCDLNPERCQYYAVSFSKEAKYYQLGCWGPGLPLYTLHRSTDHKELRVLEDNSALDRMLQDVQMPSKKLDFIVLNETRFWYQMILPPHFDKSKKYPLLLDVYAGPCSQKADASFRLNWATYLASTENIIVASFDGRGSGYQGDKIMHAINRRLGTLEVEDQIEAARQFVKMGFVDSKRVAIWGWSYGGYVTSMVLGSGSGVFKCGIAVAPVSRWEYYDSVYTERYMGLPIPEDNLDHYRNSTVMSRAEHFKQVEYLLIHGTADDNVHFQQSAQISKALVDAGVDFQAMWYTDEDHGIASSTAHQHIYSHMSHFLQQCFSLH
Aminopeptidase N (Homo sapiens), sequence (P15144 whole entry): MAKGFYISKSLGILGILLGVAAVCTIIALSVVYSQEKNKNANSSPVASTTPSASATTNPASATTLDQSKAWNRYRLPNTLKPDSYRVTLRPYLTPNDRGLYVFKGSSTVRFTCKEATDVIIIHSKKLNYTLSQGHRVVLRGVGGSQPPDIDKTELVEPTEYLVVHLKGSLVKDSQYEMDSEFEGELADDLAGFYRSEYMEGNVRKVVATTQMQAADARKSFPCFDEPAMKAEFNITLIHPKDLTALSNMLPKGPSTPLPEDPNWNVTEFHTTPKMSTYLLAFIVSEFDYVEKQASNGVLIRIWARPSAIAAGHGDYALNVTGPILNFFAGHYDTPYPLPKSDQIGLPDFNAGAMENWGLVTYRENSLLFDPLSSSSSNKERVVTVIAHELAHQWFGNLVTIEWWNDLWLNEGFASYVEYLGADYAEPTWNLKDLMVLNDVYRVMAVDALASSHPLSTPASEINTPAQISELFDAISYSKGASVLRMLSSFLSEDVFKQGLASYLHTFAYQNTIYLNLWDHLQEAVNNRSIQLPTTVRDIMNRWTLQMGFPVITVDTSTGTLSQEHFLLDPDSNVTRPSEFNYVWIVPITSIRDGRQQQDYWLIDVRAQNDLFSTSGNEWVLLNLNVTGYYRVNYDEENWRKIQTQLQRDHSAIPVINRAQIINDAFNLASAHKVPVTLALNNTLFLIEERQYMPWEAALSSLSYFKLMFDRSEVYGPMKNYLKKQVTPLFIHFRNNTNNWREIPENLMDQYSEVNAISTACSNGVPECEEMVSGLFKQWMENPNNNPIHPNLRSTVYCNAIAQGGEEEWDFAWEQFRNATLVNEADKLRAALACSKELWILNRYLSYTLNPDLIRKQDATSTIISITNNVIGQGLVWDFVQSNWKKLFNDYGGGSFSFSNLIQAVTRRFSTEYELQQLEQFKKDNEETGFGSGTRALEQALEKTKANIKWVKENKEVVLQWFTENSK

For the compound `CC(=O)Nc1cccc(OP(=O)(Oc2cccc(NC(C)=O)c2)C2CCCN2C(=O)C2CCCN2)c1.Cl` (stereo not given), in series [1], the half-life (in general, the time in which the quantity being followed falls by half) is 220 min.
Regarding `O=C(C1CCCN1)N1CCCC1P(=O)(OCC(Cl)(Cl)Cl)OCC(Cl)(Cl)Cl` (stereo not given), the IC50 – broadly, the concentration needed to halve the response being measured – at Dipeptidyl peptidase 4 was determined as 1800 µM.
On to `Cl.O=C(CNC(=O)c1ccccc1)Nc1ccc(OP(=O)(Oc2ccc(NC(=O)CNC(=O)c3ccccc3)cc2)C2CCCN2C(=O)C2CCCN2)cc1` (stereo not given), for which the half-life in series [1] was 93 min. Also, the Specificity in series [2] turned out to be 32; in series [3] it was 92.
Regarding `CC(=O)Nc1ccc(OP(=O)(Oc2ccc(NC(C)=O)cc2)C2CCCN2C(=O)C2CCCN2)cc1.Cl` (stereo not given), the Specificity in series [4] is 99; in the series filed under Homo sapiens [5] it was 105; in series [6], 83; in [2], 60; in series [3] it was 96; in series [7], 96. The compound also returned a Specificity in series [8] of 100.
In turn, `O=C(C1CCCN1)N1CCCC1P(=O)(OCC(F)(F)F)OCC(F)(F)F` (stereo not given) displayed an IC50 against Dipeptidyl peptidase 4 of 9100 µM.
`COc1ccc(OP(=O)(Oc2ccc(OC)cc2)C2CCCN2C(=O)C2CCCN2)cc1.Cl` (stereo not given) showed an IC50 against Dipeptidyl peptidase 4 of 22 µM. Further, the half-life in [1] is 470 min.
With `C[C@H](N)C(=O)Nc1ccc(OP(=O)(Oc2ccc(NC(=O)[C@@H](C)N)cc2)C2CCCN2C(=O)C2CCCN2)cc1.Cl` (stereo not given in full), half-maximal inhibition on Dipeptidyl peptidase 4 (IC50) was put at 0.6 µM. In [1], the half-life was 8 min. Moreover, the Specificity in series [2] was found to be 47; in series [3], 88.
For the compound `CCOC(=O)CNC(=O)c1ccc(OP(=O)(Oc2ccc(C(=O)NCC(=O)OCC)cc2)C2CCCN2C(=O)C2CCCN2)cc1.Cl` (stereo not given), the Specificity in the series filed under Homo sapiens [5] was determined as 6; in series [6], 66; in series [2] it was 1; in [3], 85; in series [7] it was 94; in series [8] it was 78. In series [1], the half-life was 35 min. The compound also registered an IC50 in the series filed under Homo sapiens [9] of 102 µM.
On to `COC(=O)C(Cc1ccc(OP(=O)(Oc2ccc(CC(NC(C)=O)C(=O)OC)cc2)C2CCCN2C(=O)C2CCCN2)cc1)NC(C)=O` (stereo not given), for which the results for the Specificity in [2] and in [3] were 35 and 102, respectively.
Take `Cl.O=C(C1CCCN1)N1CCCC1P(=O)(Oc1ccc(NN2CCCC2)cc1)Oc1ccc(NN2CCCC2)cc1` (stereo not given): it took 5 µM to reach half-maximal inhibition on Dipeptidyl peptidase 4 (IC50).
As for `COC(=O)CCNC(=O)c1ccc(OP(=O)(Oc2ccc(C(=O)NCCC(=O)OC)cc2)C2CCCN2C(=O)C2CCCN2)cc1.Cl` (stereo not given), in series [1], the half-life is 26 min. Moreover, the Specificity was determined as 0 in series [2] and 83 in [3].
Take `Cl.O=C(C1CCCN1)N1CCCC1P(=O)(Oc1ccc(O)cc1)Oc1ccc(O)cc1` (stereo not given): inhibition against Dipeptidyl peptidase 4 was half-maximal at 190 µM (IC50). Moreover, the half-life in series [1] was more than 200 min.
As to `COC(=O)c1ccc(OP(=O)(Oc2ccc(C(=O)OC)cc2)C2CCCN2C(=O)C2CCCN2)cc1` (stereo not given), the results for the Specificity in series [2] and in series [3] were 4 and 73, respectively.
As to `Cl.NC(=O)Nc1cccc(OP(=O)(OC2=CC=CC(NC(N)=O)C2)C2CCCN2C(=O)C2CCCN2)c1` (stereo not given), on Dipeptidyl peptidase 4, half-maximal inhibition (IC50) required 2.3 µM.
Turning to `CS(=O)(=O)Nc1ccc(OP(=O)(Oc2ccc(NS(C)(=O)=O)cc2)C2CCCN2C(=O)C2CCCN2)cc1.Cl` (stereo not given), in series [1], the half-life is 150 min. For the same compound, the Specificity in [2] is 4; in [3], 73.
For `Cl.NCC(=O)Nc1ccc(OP(=O)(Oc2ccc(NC(=O)CN)cc2)C2CCCN2C(=O)C2CCCN2)cc1` (stereo not given), the half-life in [1] is 28 min.
At Dipeptidyl peptidase 4, `Cl.O=C([C@@H]1CCCN1)N1CCCC1P1(=O)Oc2ccccc2-c2ccccc2O1` (stereo not given in full) yielded a concentration for half-maximal inhibition (IC50) of 31 µM. Also, the half-life in [1] was 6 min.
Consider `Cl.O=C([C@H]1CCCN1)N1CCCC1P(=O)(Oc1ccccc1)Oc1ccccc1` (stereo not given in full), for which the half-maximal inhibitory concentration (IC50) in the series filed under Homo sapiens [10] amounted to 100 µM. The Specificity in [4] came to 100; in the series listed under Homo sapiens [5], 82; in series [6] it was 73; in [2], 71; in series [3], 107; in series [8] it was 102. The half-life in series [1] was 300 min.
Consider `CCCNC(=O)c1ccc(OP(=O)(Oc2ccc(C(=O)NCCC)cc2)C2CCCN2C(=O)C2CCCN2)cc1.Cl` (stereo not given), for which the half-life in [1] was 12 min. The Specificity in series [2] worked out at 5; in [3], 97.
